From patent EP3628663A1, “ANTIVIRAL COMPOUNDS” (priority 2018, dated 2020)
Where two headings read alike, the source gives them in different places.

What was measured:
[1] = biological target: WW3-NEDD 4.2 peptide (Homo sapiens, UniProt Q96PU5); experiment: MicroScale thermophoresis (MST) binding to FAM-labelled WW3 peptide of NEDD4.2; conditions: 100 nM FAM-labelled peptide, 1x PBS pH 7.4, 5 % DMSO, 0.1 % Pluronic F-127, 25°C
Method: (§1) For the MicroScale Thermophoresis (MST) experiments 1 mg of each FAM-labeled WW3_Nedd.4.1 ([…] KIPAH = SEQ ID NO: 1) and WW3_Nedd.4.2 peptide ([…] […] = SEQ ID NO: 2) (FAM = Fluorescein amidite) was used at >80% purity.
(§2) MicroScale thermophoresis binding experiments were carried out with final 100 nM FAM-labelled WW3_Nedd.4.1 and WW3_Nedd.4.2 in binding buffer (1x PBS pH 7.4, 5 % DMSO, 0.1 % Pluronic F-127). The concentration range of the compound of formula (IIIa) is indicated here-after: Table 1
(§3) The MST analyses were performed at 40 % MST power, 100 % LED power in standard capillaries on a Monolith NT.115 blue/green device at 25°C (NanoTemper Technologies, Munich, Germany) in duplicate technical runs in the same capillary. Thermophoresis + Tjump was analysed. The recorded fluorescence was normalised to fraction bound (0 = unbound, 1 = bound), and processed using the GraphPad Prism® 6 software and fitted using the KD fit formula derived from the law of mass action.

[2] = biological target: WW3-NEDD 4.1 peptide (Homo sapiens, UniProt P46934); experiment: MicroScale thermophoresis (MST) binding to FAM-labelled WW3 peptide of NEDD4.1
Method: as §1, §2, §3

[3] = tested on: HAd-C5-GFP; experiment: Fluorescent plaque forming assay of adenoviral propagation (virus spread); assay type: cell-based; conditions: HEK293 cells
Method: Adenoviral propagation was quantified by fluorescent plaque forming assay with GFP expressing HAd-C5 vector in the presence of the compound as a measure of virus spread through multiple rounds of infection.
HEK293 cells were infected with 0.1 physical particles per cell (pp/cell) of E1-deficient GFP expressing HAd-C5-GFP vector for 24 hours followed by removal of the inoculums and overlay with 1% agarose supplemented with vehicle only (DMSO) or 5 µM of the compound of formula (IIIa).
Six days after infection, plaque sizes were measured by epifluorescence microscopy using Image J.
Cidofovir™, the standard clinical drug used against adenovirus infections in the clinic, is also included in this test.
The compounds were used at a concentration of 5 µM. Cidofovir was in particular used at even higher concentration, i.e. 10 and 20 µM.
DMSO was used as negative control.
Statistical analysis was carried out using unpaired Student t-test.

[4] = biological target: T1, WW3-domain of NEDD4 (Homo sapiens, UniProt P46934); experiment: Solution NMR interaction study with synthetic WW3-domain peptide of NEDD4; assay type: binding; conditions: equimolar amounts of compound and NEDD4 peptide
T1 construct: a peptide corresponding to the 45 amino acids of WW3-domain of NEDD4; made in house; host or cells: chemical synthesis

[5] = tested on: U2OS cells; experiment: Ubiquitin proteome by diGly peptide enrichment and LC-MS/MS; assay type: cell-based, Homo sapiens; conditions: 24h, compared to DMSO treated control cells
Method: U2OS Cells were treated for 24h with two different concentrations of the compound of formula (IIIa) (2µM and 10µM) and were subjected to Mass Spec. analysis following diGly peptide enrichment to obtain changes in the Ubiquitin proteome.
Briefly, cells were collected following treatment (as above) and protein extracts generated using acetone precipitation. Total proteins were trypsin-digested and the resulting peptides purified through anti di-Gly affinity chromatography prior being sequenced by LC-MS/MS.

[6] = tested on: GFP-NEDD4.2; experiment: Localization of GFP-NEDD4.2 in U2OS cells (fluorescence microscopy); assay type: cell-based, Homo sapiens; conditions: U2OS cells stably expressing GFP-NEDD4.2, versus untreated cells
Text: (§4) U2OS cells (ATCC® HTB-96™) (Homo sapiens bone osteosarcoma) stably expressing low levels of GFP-NEDD4.1 or GFP-NEDD4.2 were generated through single copy flp-FRT integration (Bosse et al., Methods Mol Biol. 2013;1064:153-69.) and treated with the compound of formula (IIIa) or the control DMSO.

[7] = tested on: protein VI; experiment: Ubiquitylation of RFP-tagged protein VI in NEDD4.2-GFP expressing cells (RFP-trap, western blot); assay type: cell-based; conditions: increasing amounts (0, 2, 5, 10, 25 µM) for 2h; NEDD4.2-GFP cells
Method: Stably expressing NEDD4.2-GFP cells were transfected with an expression vector encoding RFP-tagged protein VI WT (including the PPxY targeted by NEDD4 ubiquitin ligases through WW-domains, which are the target of the compounds) or protein VI M1 (with the PPxY targeted by NEDD4 ubiquitin ligases through WW-domains mutated to PGAA) and treated with increasing amounts of the compound of formula (IIIa) for 2h. RFP stands for Red Fluorescent Protein.
Protein VI was immunoprecipitated from drug treated cells using RFP-trap and analyzed by western blotting with anti-ubiquitin antibodies.
(§5) Samples were analyzed by western blot using anti-protein VI antibodies described in Martinez et al., J Virol. 2015 Feb;89(4):2121-35.

[8] = tested on: GFP-NEDD4.1; experiment: Localization of GFP-NEDD4.1 in U2OS cells (fluorescence microscopy); assay type: cell-based, Homo sapiens; conditions: U2OS cells stably expressing GFP-NEDD4.1, versus DMSO
Text: as §4

[9] = biological target: T2, recombinant NEDD4.2 (Homo sapiens, UniProt Q96PU5); experiment: In vitro ubiquitylation of protein VI released from adenovirus particles with recombinant NEDD4.2; assay type: biochemical; conditions: high concentrations (25 µM); recombinant NEDD4.2, 1h at 30°C
T2 sequence (Q96PU5 1-975): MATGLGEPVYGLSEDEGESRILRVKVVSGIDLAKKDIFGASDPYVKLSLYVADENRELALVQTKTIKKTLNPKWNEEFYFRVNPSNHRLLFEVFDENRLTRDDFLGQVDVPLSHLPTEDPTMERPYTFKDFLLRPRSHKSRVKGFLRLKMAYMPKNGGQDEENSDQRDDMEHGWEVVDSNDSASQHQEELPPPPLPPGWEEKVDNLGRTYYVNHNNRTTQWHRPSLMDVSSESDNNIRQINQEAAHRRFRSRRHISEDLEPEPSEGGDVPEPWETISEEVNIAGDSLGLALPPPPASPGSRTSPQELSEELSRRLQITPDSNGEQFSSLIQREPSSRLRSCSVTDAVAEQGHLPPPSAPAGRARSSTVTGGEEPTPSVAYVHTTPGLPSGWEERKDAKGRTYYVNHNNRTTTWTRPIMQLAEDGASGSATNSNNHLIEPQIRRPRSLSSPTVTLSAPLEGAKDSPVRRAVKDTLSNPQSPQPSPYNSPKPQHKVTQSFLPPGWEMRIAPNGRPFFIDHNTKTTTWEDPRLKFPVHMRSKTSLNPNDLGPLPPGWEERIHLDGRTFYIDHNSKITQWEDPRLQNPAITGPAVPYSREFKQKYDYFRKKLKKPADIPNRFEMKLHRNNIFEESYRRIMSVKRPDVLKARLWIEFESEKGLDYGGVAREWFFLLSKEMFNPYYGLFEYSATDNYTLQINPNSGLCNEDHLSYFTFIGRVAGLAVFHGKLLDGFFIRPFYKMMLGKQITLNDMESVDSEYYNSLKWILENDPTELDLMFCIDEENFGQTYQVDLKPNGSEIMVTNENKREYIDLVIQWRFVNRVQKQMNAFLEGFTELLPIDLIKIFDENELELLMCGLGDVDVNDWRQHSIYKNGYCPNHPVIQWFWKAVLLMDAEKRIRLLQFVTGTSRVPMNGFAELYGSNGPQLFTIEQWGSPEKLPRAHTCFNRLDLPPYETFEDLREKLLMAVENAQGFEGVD
Method: For in vitro ubiquitylation reactions, purified Adenovirus particles were treated with mild heat to release protein VI as previously described in Wodrich et al. (2010 - PLoS Pathog. 6, e1000808), and in vitro ubiquitylation reactions were supplemented with recombinant NEDD4.2 and DMSO or the compound of formula (IIIa) and carried out for 1h at 30°C or left on ice.
as §5

[10] = tested on: NEDD4.2-GFP; experiment: Association of incoming fluorescently labelled adenoviruses with NEDD4.2-GFP (fluorescence microscopy); assay type: cell-based, Homo sapiens; conditions: 10µM; 15-30 min p.i.
Method: GFP-NEDD4.2 expressing cells were infected in absence or presence of 10µM of the compound of formula (IIIa) with fluorescently labelled viruses and association between viruses and NEDD4.2-GFP was quantified using fluorescence microscopy.

WW3-NEDD 4.1 peptide, sequence (P46934 834-878): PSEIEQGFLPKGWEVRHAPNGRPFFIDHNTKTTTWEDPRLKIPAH
WW3-NEDD 4.2 peptide, sequence (Q96PU5 with tags, fused parts or gaps): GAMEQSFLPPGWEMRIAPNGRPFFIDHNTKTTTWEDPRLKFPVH
T1 sequence (P46934 834-878): as the sequence (P46934 834-878) above

SMILES	Kd [1] [µM]	Kd [2] [µM]	inhibition of adenoviral propagation (plaque size) ([3]; 10 µM and 20 µM (highest non-cytotoxic concentrations), plaque size)	interaction with the NEDD4 peptide (NMR chemical shift change) [4]	ubiquitylation of cellular proteins ([5]; 2µM)	ubiquitylation of cellular proteins ([5]; 10µM)	anti-adenoviral activity (plaque size) ([3]; 5 µM, 0.1 pp/cell HAd-C5-GFP, plaque size six days after infection, compared to DMSO)	Kd ([2]; MST, 100 nM FAM-labelled peptide, 1x PBS pH 7.4, 5 % DMSO, 0.1 % Pluronic F-127, 25°C, read-out: WW3-NEDD 4.1 peptide KD) [µM]	higher affinity to the WW3 peptide domain target compared to the Imidazole control ([2]; ratio of MST KD values, WW3-NEDD4.1 and WW3-NEDD4.2)	NEDD4.2 localization [6]	ubiquitylation of protein VI in cells [7]	NEDD4.1 localization [8]	protein VI ubiquitylation in vitro [9]	recruitment of NEDD4.2 to incoming AdV particles [10]
c1c[nH]cn1 [Imidazole (control), Imidazole, reference compound]	90.4 ± 38.6	88.9 ± 28.4	–	–	–	–	–	–	–	–	–	–	–	–
Nc1ccn(C[C@@H](CO)OCP(=O)(O)O)c(=O)n1 [Cidofovir, reference compound]	–	–	did not show significant inhibition	–	–	–	–	–	–	–	–	–	–	–
O=C(/C=C(\C(=O)c1ccc(Cl)cc1Cl)n1ccnc1)c1ccc(Cl)cc1Cl [Compound of formula (IIIa), (E)-1,4-Bis(2,4-dichlorophenyl)-2-(1H-imidazol-1-yl)but-2-ene-1,4-dione]	0.12 ± 0.039	–	–	interacts with the NEDD4 peptide	protein ubiquitylation is reduced or increased for several cellular proteins	preferentially increases ubiquitylation of several cellular proteins	effective anti-adenoviral activity	0.058 ± 0.022	100-1000 fold	accumulated strongly at cell-cell-contact sites as well as in a distinct perinuclear region	gradually impaired ubiquitylation of protein VI	became largely immobile and relocated to a perinuclear region	prevented protein VI ubiquitylation in vitro	prevented the recruitment of NEDD4.2
